In patent US20130065818A1, “Arylamide Compounds And Compositions And Uses Thereof” (POLYMEDIX, priority 2006, published 2013):
In brackets after ≈: the same amount, converted by molar mass. Like-named read-outs stand apart in the source and are kept apart here.

Experiments:
E. coli D31 = test: MIC, control bacteria (Example 8); assay type: cell-based
Experimental: (§1) • Mueller-Hinton Broth in tubes was inoculated with 25 ocular isolates of Staphylococcus aureus fluoroquinolone-susceptible, Staphylococcus aureus fluoroquinolone-resistant, Staphylococcus epidermidis (Coagulase-negative Staphylococcus) fluoroquinolone-susceptible, Staphylococcus epidermidis (Coagulase-negative Staphylococcus) fluoroquinolone-resistant, Pseudomonas aeruginosa and Serratia marcescens, plus two controls (Staphylococcus aureus and E. coli) and incubated at 37° C. overnight on a shaker set at 250 rpm.
(§2) Control Bacteria—The two control bacteria (Staphylococcus aureus and E. coli) were treated as above.
(§3) Control Bacteria Set #1—this set of control bacteria were treated as the Streptococcus pneumoniae, Streptococcus viridans and Moraxella species (including Moraxella catarrhalis) test isolates above; the control bacteria underwent the same conditions as the test Streptococcus pneumoniae, Streptococcus viridans and Moraxella species (including Moraxella catarrhalis) isolates. This set of control bacteria was to determine whether there was a difference in the MICs by performing the MIC determinations in 2% lysed horse red blood cells with the standard method performed in Mueller-Hinton broth.
(§4) Control Bacteria Set #2—the control bacteria were added to 5 ml of Mueller-Hinton Broth without the 2% lysed horse red blood cells to achieve the standard inoculum concentration. This set of control bacteria is the normal control to determine whether the compounds are at the target MICs.
(§5) Control Bacteria Set #1—this set of control bacteria were treated as the Haemophilus influenzae test isolates above; the control bacteria underwent the same conditions as the test Haemophilus influenzae isolates. This set of control bacteria is to determine whether there was a difference in the MICs by performing the MIC determinations in HTM broth with the standard method performed in Mueller-Hinton broth.
(§6) Control Bacteria Set #2—the control bacteria were added to 5 ml of Mueller-Hinton Broth to achieve the standard inoculum concentration. This set of control bacteria is the normal control to determine whether the compounds are at the target MICs.
(§7) Ninety μl of the bacterial suspensions was dispensed in each well from column 1 to column 12. Each bacterial isolate was placed in one row of a 96 well polypropylene plate containing the test agents. The plates were placed on shaker at 15 minutes at room temperature, and then incubated at 37° C. overnight. MICs were determined visually as the lowest concentration of drug that inhibits visible bacterial growth.

S. aureus ATCC 27660 = test: MIC, control bacteria (Example 8); assay type: cell-based; details: Control Bacteria S. aureus ATCC 27660
Experimental: as §1, §2, §3, §4, §5, §6, §7

Question: With `N=C(N)NCCCCC(=O)Nc1cc(C(F)(F)F)cc(NC(=O)c2cc(C(=O)Nc3cc(C(F)(F)F)cc(NC(=O)CCCCNC(=N)N)c3O[C@@H]3CCNC3)ncn2)c1O[C@@H]1CCNC1` [Oligomer 4] as the compound, how does the “Decrease of activity by addition of 2% lysed horse red blood cells to Mueller-Hinton broth” value (E. coli D31; Control Bacteria E. coli D31) read?
Answer: approximately 4 fold

Question: And the “Decrease of activity by use of HTM broth” value (E. coli D31; Control Bacteria E. coli D31)?
Answer: approximately 8 fold

Question: What about the MIC (E. coli D31; Control Bacteria Set #1, run with Haemophilus influenzae MIC test, read-out: MIC) of the same compound?
Answer: 8 µg/mL (≈ 8.54 µM)

Question: And the MIC (E. coli D31; E. coli D31, Control for MIC Test SA-FQR, first batch)?
Answer: 1 µg/mL (≈ 1.07 µM)

Question: What about the MIC (E. coli D31; E. coli D31, Control for MIC Test SA-FQS, first batch) of the same compound?
Answer: 1 µg/mL (≈ 1.07 µM)

Question: And the MIC (E. coli D31; E. coli D31, new batches, Control Only 1)?
Answer: 1 µg/mL (≈ 1.07 µM)

Question: What about the MIC (E. coli D31; E. coli D31, new batches, Control Only 2) of the same compound?
Answer: 1 µg/mL (≈ 1.07 µM)

Question: And the MIC (E. coli D31; E. coli D31, new batches, Control Only 3)?
Answer: 1 µg/mL (≈ 1.07 µM)

Question: And the MIC (E. coli D31; E. coli D31, new batches, Control Only 4)?
Answer: 1 µg/mL (≈ 1.07 µM)

Question: What about the MIC (E. coli D31; E. coli Lab Strain D31) of the same compound?
Answer: 0.78 µg/mL (≈ 0.833 µM)

Question: And the MIC (E. coli D31; Escherichia coli, D31, Control Bacteria Set #1, run with Moraxella MIC test, read-out: MIC)?
Answer: 4 µg/mL (≈ 4.27 µM)

Question: What about the MIC (E. coli D31; Escherichia coli, D31, Control Only 1, read-out: MIC of control bacteria on day of MIC testing) of the same compound?
Answer: 1 µg/mL

Question: What about the MIC (E. coli D31; Escherichia coli, D31, Control Only 2, read-out: MIC of control bacteria on day of MIC testing) of the same compound?
Answer: 1 µg/mL

Question: What about the MIC (E. coli D31; Escherichia coli, D31, Control Only 3, read-out: MIC of control bacteria on day of MIC testing) of the same compound?
Answer: 1 µg/mL

Question: What about the MIC (E. coli D31; Escherichia coli, D31, Control Only 4, read-out: MIC of control bacteria on day of MIC testing) of the same compound?
Answer: 1 µg/mL

Question: And the MIC (E. coli D31; Escherichia coli, D31, E. coli D31, Control Bacteria Set #1 (same conditions as test isolates), run with Streptococcus pneumoniae MIC test, read-out: MIC)?
Answer: 2 µg/mL (≈ 2.13 µM)

Question: What about the MIC (E. coli D31; Escherichia coli, D31, E. coli D31, Control Bacteria Set #1 (same conditions as test isolates), run with Streptococcus viridans group MIC test, read-out: MIC) of the same compound?
Answer: 2 µg/mL (≈ 2.13 µM)

Question: And the MIC (E. coli D31; Escherichia coli, D31, E. coli D31, Control Bacteria Set #2 (Mueller-Hinton Broth), run with Streptococcus pneumoniae MIC test, read-out: MIC)?
Answer: 0.5 µg/mL (≈ 0.534 µM)

Question: And the MIC (E. coli D31; Escherichia coli, D31, E. coli D31, Control Bacteria Set #2 (Mueller-Hinton Broth), run with Streptococcus viridans group MIC test, read-out: MIC)?
Answer: 0.5 µg/mL (≈ 0.534 µM)

Question: And the MIC (E. coli D31; Escherichia coli, D31, E. coli D31, control bacteria run with Pseudomonas aeruginosa MIC test, read-out: MIC)?
Answer: 0.5 µg/mL (≈ 0.534 µM)

Question: What about the MIC (E. coli D31; Escherichia coli, D31, E. coli D31, control bacteria run with S. aureus fluoroquinolone-resistant MIC test, read-out: MIC) of the same compound?
Answer: 1 µg/mL (≈ 1.07 µM)

Question: What about the MIC (E. coli D31; Escherichia coli, D31, E. coli D31, control bacteria run with S. aureus fluoroquinolone-susceptible MIC test, read-out: MIC) of the same compound?
Answer: 1 µg/mL (≈ 1.07 µM)

Question: And the MIC (E. coli D31; Escherichia coli, D31, E. coli D31, control bacteria run with S. epidermidis fluoroquinolone-resistant MIC test, read-out: MIC)?
Answer: 1 µg/mL (≈ 1.07 µM)

Question: What about the MIC (E. coli D31; Escherichia coli, D31, E. coli D31, control bacteria run with S. epidermidis fluoroquinolone-susceptible MIC test, read-out: MIC) of the same compound?
Answer: 1 µg/mL (≈ 1.07 µM)

Question: What about the MIC (E. coli D31; Escherichia coli, D31, E. coli D31, control bacteria run with Serratia marcescens MIC test, read-out: MIC) of the same compound?
Answer: 0.5 µg/mL (≈ 0.534 µM)

Question: And the MIC (E. coli D31; Escherichia coli, D31, E. coli D31, MIC previously obtained (target MIC), printed in parentheses, read-out: MIC for Control Bacteria within the parentheses)?
Answer: 0.78 µg/mL (≈ 0.833 µM)

Question: What about the MIC (E. coli D31; Escherichia coli, D31, E. coli D31, read-out: MIC) of the same compound?
Answer: 0.78 µg/mL (≈ 0.833 µM)

Question: And the MIC (E. coli D31; Escherichia coli, D31, control for MIC test HI (Control Bacteria Set #2), read-out: MIC of control bacteria on day of MIC testing)?
Answer: 1 µg/mL

Question: And the MIC (E. coli D31; Escherichia coli, D31, control for MIC test MS (Control Bacteria Set #2), read-out: MIC of control bacteria on day of MIC testing)?
Answer: 1 µg/mL

Question: What about the MIC (E. coli D31; Escherichia coli, D31, control for MIC test PA, read-out: MIC of control bacteria on day of MIC testing) of the same compound?
Answer: 0.5 µg/mL

Question: And the MIC (E. coli D31; Escherichia coli, D31, control for MIC test SA-FQR, read-out: MIC of control bacteria on day of MIC testing)?
Answer: 1 µg/mL

Question: What about the MIC (E. coli D31; Escherichia coli, D31, control for MIC test SA-FQS, read-out: MIC of control bacteria on day of MIC testing) of the same compound?
Answer: 1 µg/mL

Question: And the MIC (E. coli D31; Escherichia coli, D31, control for MIC test SE-FQR, read-out: MIC of control bacteria on day of MIC testing)?
Answer: 1 µg/mL

Question: What about the MIC (E. coli D31; Escherichia coli, D31, control for MIC test SE-FQS, read-out: MIC of control bacteria on day of MIC testing) of the same compound?
Answer: 1 µg/mL

Question: And the MIC (E. coli D31; Escherichia coli, D31, control for MIC test SM, read-out: MIC of control bacteria on day of MIC testing)?
Answer: 0.5 µg/mL

Question: And the MIC (E. coli D31; Escherichia coli, D31, control for MIC test SP, read-out: MIC of control bacteria on day of MIC testing)?
Answer: 0.5 µg/mL

Question: What about the MIC (E. coli D31; Escherichia coli, D31, control for MIC test SV, read-out: MIC of control bacteria on day of MIC testing) of the same compound?
Answer: 0.5 µg/mL

Question: What about the MIC (E. coli D31; Escherichia coli, D31, reference MIC printed in parentheses beside the day's control value, read-out: MIC for Control Bacteria (within the parentheses)) of the same compound?
Answer: 0.78 µg/mL (≈ 0.833 µM)

Question: And the “Decrease of activity by addition of 2% lysed horse red blood cells to Mueller-Hinton broth” value (S. aureus ATCC 27660)?
Answer: approximately 4 fold
